Test results from ChEMBL document CHEMBL5029185, “Discovery of Novel Polycyclic Heterocyclic Derivatives from Evodiamine for the Potential Treatment of Triple-Negative Breast Cancer” (J Med Chem, 2021).
Active and inactive are the calls of the source. The calls are words filed in the database; no cut-off is given here.

What was measured:
A549 = assay: Antiproliferative activity against human A549 cells assessed as inhibition rate incubated for 72 hrs by MTT assay; type: functional, cell-based; details: A549, 72 h
MCF7 = assay: Antiproliferative activity against human MCF7 cells assessed as inhibition rate incubated for 72 hrs by MTT assay; type: functional, cell-based; details: MCF7, 72 h
MDA-MB-231 [1] = assay: Antiproliferative activity against human MDA-MB-231 cells transfected with siRNA-Top1 assessed as cell viability by MTT assay; type: functional, cell-based
MDA-MB-435 = assay: Antiproliferative activity against human MDA-MB-435 cells assessed as inhibition rate incubated for 72 hrs by MTT assay; type: functional, cell-based; details: MDA-MB-435, 72 h
MDA-MB-231 [2] = assay: Antiproliferative activity against human MDA-MB-231 cells assessed as inhibition rate incubated for 72 hrs by MTT assay; type: functional, cell-based; details: MDA-MB-231, 72 h
LoVo = assay: Antiproliferative activity against human LoVo cells assessed as inhibition rate incubated for 72 hrs by MTT assay; type: functional, cell-based
[3] = target: T1, DNA topoisomerase 1 (Homo sapiens) (UniProt P11387); assay: Induction of topoisomerase 1-DNA cleavable complex in human MDA-MB-231 cells assessed as increase in cleavable complex by measuring SDS-K+ precipitable complex at 15 uM measured up to 15 hrs by liquid scintillation counting analysis; type: cell-based; details: time hrs <=15
T1 sequence (whole entry): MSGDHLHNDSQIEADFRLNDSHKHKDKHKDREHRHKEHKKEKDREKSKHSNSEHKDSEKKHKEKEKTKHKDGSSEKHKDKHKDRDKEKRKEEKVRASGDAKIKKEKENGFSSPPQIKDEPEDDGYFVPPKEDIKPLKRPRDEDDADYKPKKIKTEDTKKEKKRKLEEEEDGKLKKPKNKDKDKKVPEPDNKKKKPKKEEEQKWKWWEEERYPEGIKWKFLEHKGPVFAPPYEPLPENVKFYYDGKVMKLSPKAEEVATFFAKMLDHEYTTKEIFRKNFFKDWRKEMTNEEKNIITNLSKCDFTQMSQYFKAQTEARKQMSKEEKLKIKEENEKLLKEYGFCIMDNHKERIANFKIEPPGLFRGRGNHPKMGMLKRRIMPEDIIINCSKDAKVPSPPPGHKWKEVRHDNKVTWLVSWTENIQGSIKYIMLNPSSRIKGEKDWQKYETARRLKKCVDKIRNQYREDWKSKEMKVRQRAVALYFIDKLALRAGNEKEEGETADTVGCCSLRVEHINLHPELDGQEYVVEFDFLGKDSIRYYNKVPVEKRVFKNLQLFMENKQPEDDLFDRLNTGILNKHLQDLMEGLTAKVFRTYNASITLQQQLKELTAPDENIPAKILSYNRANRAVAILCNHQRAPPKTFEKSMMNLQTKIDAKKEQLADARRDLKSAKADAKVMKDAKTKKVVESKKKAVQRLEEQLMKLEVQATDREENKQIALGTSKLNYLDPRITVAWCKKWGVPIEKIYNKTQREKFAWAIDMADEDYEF

MCF-10A = assay: cells; type: ADME, cell-based; details: Homo sapiens, 72 h
Description: Antiproliferative activity against human MCF-10A cells assessed as inhibition rate incubated for 72 hrs by MTT assay

H22 = assay: Antiproliferative activity against mouse H22 cells assessed as inhibition rate incubated for 72 hrs by MTT assay; type: functional, cell-based; details: H22, 72 h
MDA-MB-231 [4] = assay: Antiproliferative activity against human MDA-MB-231 cells transfected with siRNA-Ctrl assessed as cell viability by MTT assay; type: functional, cell-based
[5] = Ratio of IC50 for antiproliferative activity against human MDA-MB-231 cells transfected with siRNA-Top1 to IC50 for antiproliferative activity against human MDA-MB-231 cells transfected with siRNA-Ctrl assessed as cell viability by MTT assay; type: functional
[6] = Selectivity index, ratio of IC50 for human MCF-10A cells to IC50 for human MDA-MB-231 cells
4T1 = assay: Antiproliferative activity against mouse 4T1 cells assessed as inhibition rate incubated for 72 hrs by MTT assay; type: functional, cell-based; details: 4T1, 72 h
HepG2 = assay: Antiproliferative activity against human HepG2 cells assessed as inhibition rate incubated for 72 hrs by MTT assay; type: functional, cell-based; details: HepG2, 72 h
MDA-MB-231 [7] = assay: Antiproliferative activity against human MDA-MB-231 cells assessed as inhibition rate at 10 uM incubated for 72 hrs by MTT assay; type: functional
MDA-MB-231 [8] = assay: Antiproliferative activity against human MDA-MB-231 cells assessed as inhibition rate at 100 uM incubated for 72 hrs by MTT assay; type: functional
HCT-116 = assay: Antiproliferative activity against human HCT-116 cells assessed as inhibition rate incubated for 72 hrs by MTT assay; type: functional, cell-based; details: HCT-116, 72 h
MDA-MB-231 [9] = assay: Antiproliferative activity against human MDA-MB-231 cells assessed as inhibition rate at 1 uM incubated for 72 hrs by MTT assay; type: functional
[10] = target: T1, DNA topoisomerase 1 (Homo sapiens); assay: Inhibition of topoisomerase 1 (unknown origin) assessed as relaxation of supercoiled plasmid pBR322 DNA upto 500 uM incubated for 15 mins by agarose gel electrophoresis; details: dose microM <=500, time 15.0 min
HEK293 = assay: cells; type: ADME, cell-based; details: Homo sapiens, HEK293, 72 h
Description: Antiproliferative activity against HEK293 cells assessed as inhibition rate incubated for 72 hrs by MTT assay

| Compound | IC50 (A549) | IC50 (MDA-MB-435) | IC50 (MDA-MB-231 [2]) | inhibition at 10 µM (MDA-MB-231 [7]) | inhibition at 100 µM (MDA-MB-231 [8]) | IC50 (HCT-116) | inhibition at 1 µM (MDA-MB-231 [9]) | further results |
| --- | --- | --- | --- | --- | --- | --- | --- | --- |
| CC[C@@]1(O)C(=O)OCc2c1cc1n(c2=O)Cc2cc3ccccc3nc2-1 [CAMPTOTHECIN] | 0.1 µM | 0.31 µM | 0.42 µM |  |  |  |  | IC50 (MCF7): 0.56 µM; IC50 (MDA-MB-231 [1]): > 6.4 µM; IC50 (LoVo): 1.54 µM; Activity [3]: Active; IC50 (MCF-10A): 2.19 µM; IC50 (H22): 0.54 µM; IC50 (MDA-MB-231 [4]): 0.264 µM; Ratio IC50 [5]: 24; selectivity ratio [6]: 5.2; IC50 (4T1): 0.17 µM; IC50 (HepG2): 0.11 µM |
| O=C1c2ccccc2OC2c3oc4ccc(O)cc4c3CCN12 (centres undefined) | 4.28 µM | 0.47 µM | 0.86 µM | 61.2% | 96.5% | 1.26 µM | 55.1% | Activity [10]: inactive |
| O=C1c2cc(Cl)cc(Cl)c2OC2c3oc4ccc(O)cc4c3CCN12 (centres undefined) | 7.58 µM | 2.33 µM | 3.73 µM | 59.5% | 96.9% | 6.09 µM | 32.7% | Activity [10]: inactive |
| O=C1c2cc(Br)ccc2OC2c3oc4ccc(O)cc4c3CCN12 (centres undefined) | 4.14 µM | 0.81 µM | 1.16 µM | 83.1% | 94.5% | 1.71 µM | 75.7% | Activity [10]: inactive |
| COc1ccc2oc3c(c2c1)CCN1C(=O)c2cc(Cl)cc(Cl)c2OC31 (centres undefined) |  |  |  | 5.5% | 12.1% |  | 8.6% |  |
| Cc1ccc2c(c1)OC1c3oc4ccc(O)cc4c3CCN1C2=O (centres undefined) | 10.5 µM | 1.14 µM | 1.05 µM | 64.8% | 94% | 4.71 µM | 62.7% | Activity [10]: inactive |
| COc1ccc2oc3c(c2c1)CCN1C(=O)c2cc(Cl)ccc2OC31 (centres undefined) |  |  |  | 7.3% | 15.9% |  | 2.3% |  |
| CN1c2ccccc2C(=O)N2CCc3c([nH]c4ccccc34)C21 (centres undefined) | 77.2 µM | 6.3 µM | 13.3 µM | 53.3% | 73.3% | 32.7 µM | 38.9% | IC50 (HEK293): > 100 µM; IC50 (MCF-10A): > 100 µM; selectivity ratio ([6]; MCF-10A cells versus MDA-MB-231 cells): > 10.7 |
| COc1ccc2oc3c(c2c1)CCN1C(=O)c2ccc(C)cc2OC31 (centres undefined) |  |  |  | 19.2% | 41.5% |  | 7.5% |  |
| COC(=O)c1ccc2[nH]c3c(c2c1)CCN1C(=O)c2ccccc2OC31 (centres undefined) |  |  |  | 15.7% | 45.2% |  | 12.6% |  |
| COc1ccc2oc3c(c2c1)CCN1C(=O)c2cccc(C)c2OC31 (centres undefined) |  |  |  | 11.9% | 15% |  | 7.1% |  |
| COc1ccc2oc3c(c2c1)CCN1C(=O)c2ccccc2OC31 (centres undefined) |  |  |  | 10.6% | 36.6% |  | 6% |  |
| COc1ccc2oc3c(c2c1)CCN1C(=O)c2cc(Br)ccc2OC31 (centres undefined) |  |  |  | 9.2% | 13% |  | 6.8% |  |
| Cc1cccc2c1OC1c3oc4ccc(O)cc4c3CCN1C2=O (centres undefined) | 6.79 µM | 1.95 µM | 2.52 µM | 66.5% | 97.4% | 3.45 µM | 60.6% | Activity [10]: inactive |
| O=C(O)c1ccc2[nH]c3c(c2c1)CCN1C(=O)c2ccccc2OC31 (centres undefined) |  |  |  | 11.2% | 39.6% |  | 9.7% |  |
| COc1ccc2nc3c(cc2c1)CN1C(=O)c2ccccc2N(C)C31 (centres undefined) |  |  |  | 11.9% | 80.7% |  | 7.6% |  |
| CN1c2ccccc2C(=O)N2Cc3cc4cc(O)ccc4nc3C21 (centres undefined) |  |  |  | 19.8% | 89.9% |  | 6.3% |  |
